From patent publication US20090253667A1, “18 ,21-Didesoxymacbecin Derivatives for the Treatment of Cancer” (priority 2006, published 2009)

How the values were obtained:
Yeast Hsp90 = Yeast Hsp90 (Saccharomyces cerevisiae, UniProt P02829); experiment: Isothermal titration calorimetry, Kd for Hsp90 binding; settings: ITC at 30° C., 0.008 mM yeast Hsp90, 2% DMSO
Method: Yeast Hsp90 was dialysed against 20 mM Tris pH 7.5 containing 1 mM EDTA and 5 mM NaCl and then diluted to 0.008 mM in the same buffer, but containing 2% DMSO. The test compounds were dissolved in 100% DMSO at a concentration of 50 mM and subsequently diluted to 0.1 mM in the same buffer as for Hsp90 with 2% DMSO. Heats of interaction were measured at 30° C. on a MSC system (Microcal), with a cell volume of 1.458 mL. 10 aliquots of 0.027 mL of 0.100 mM of each test compound were injected into 0.008 mM yeast Hsp90. Heats of dilution were determined in a separate experiment by injecting the test compound into buffer containing 2% DMSO, and the corrected data fitted using a nonlinear least square curve-fitting algorithm (Microcal Origin) with three floating variables: stoichiometry, binding constant and change in enthalpy of interaction.

CNXF 498NL = experiment: Monolayer proliferation assay (modified propidium iodide assay); format: cell-based, human; settings: 4 days continuous exposure
Method: (§1) In vitro evaluation of compounds for anticancer activity in a panel of human tumour cell lines in a monolayer proliferation assay were carried out at the Oncotest Testing Facility, Institute for Experimental Oncology, Oncotest GmbH, Freiburg.
(§2) The Oncotest cell lines were established from human tumor xenografts as described by Roth et al., (1999). The origin of the donor xenografts was described by Fiebig et al., (1999). Other cell lines were either obtained from the NCI (DU145, MCF-7) or purchased from DSMZ, Braunschweig, Germany.
(§3) All cell lines, unless otherwise specified, were grown at 37° C. in a humidified atmosphere (95% air, 5% CO2) in a ‘ready-mix’ medium containing RPMI 1640 medium, 10% fetal calf serum, and 0.1 mg/mL gentamicin (PAA, Cölbe, Germany).
(§4) A modified propidium iodide assay was used to assess the effects of the test compound(s) on the growth of human tumour cell lines (Dengler et al., (1995)).
(§5) Briefly, cells were harvested from exponential phase cultures by trypsinization, counted and plated in 96 well flat-bottomed microtitre plates at a cell density dependent on the cell line (5-10.000 viable cells/well). After 24 h recovery to allow the cells to resume exponential growth, 0.010 mL of culture medium (6 control wells per plate) or culture medium containing the 18,21-didesoxymacbecin analogue was added to the wells. Each concentration was plated in triplicate. Compounds were applied in five concentrations (100; 10; 1; 0.1 and 0.01 μg/ml). Following 4 days of continuous exposure, cell culture medium with or without test compound was replaced by 0.2 mL of an aqueous propidium iodide (PI) solution (7 mg/L). To measure the proportion of living cells, cells may be permeabilized by freezing the plates. After thawing the plates, fluorescence was measured using the Cytofluor 4000 microplate reader (excitation 530 nm, emission 620 nm), giving a direct relationship to the total number of viable cells. Growth inhibition may be expressed as treated/control×100 (% T/C). This can be plotted as a graph of % T/C against concentration of test compound applied, which can then be used to calculate the concentration necessary to inhibit cell growth by 70% (IC70).
(§6) In vitro evaluation of the test compounds for anticancer activity in a panel of human tumour cell lines in a monolayer proliferation assay was carried out as described in the general methods using a modified propidium iodide assay.

CXF HT29 = experiment: as above; format: cell-based, human; settings: 4 days continuous exposure
Method: as §1, §2, §3, §4, §5, §6

DU145 = experiment: as above; format: cell-based, human; settings: 4 days continuous exposure
Method: as §1, §2, §3, §4, §5, §6

LXF 1121L = experiment: as above; format: cell-based, human; settings: 4 days continuous exposure
Method: as §1, §2, §3, §4, §5, §6

MCF-7 = experiment: as above; format: cell-based, human; settings: 4 days continuous exposure
Method: as §1, §2, §3, §4, §5, §6

MEXF 394NL = experiment: as above; format: cell-based, human; settings: 4 days continuous exposure
Method: as §1, §2, §3, §4, §5, §6

[1] = test system: panel of human tumour cell lines; experiment: Monolayer proliferation assay, mean IC70 across the cell line panel; format: cell-based; settings: geometric mean of all replicates across the six cell lines
Method: as §1, §2, §3, §4, §5, §6

Hsp90 = Hsp90 (Homo sapiens, UniProt P07900); settings: cited from earlier work

Yeast Hsp90, sequence (P02829 whole entry): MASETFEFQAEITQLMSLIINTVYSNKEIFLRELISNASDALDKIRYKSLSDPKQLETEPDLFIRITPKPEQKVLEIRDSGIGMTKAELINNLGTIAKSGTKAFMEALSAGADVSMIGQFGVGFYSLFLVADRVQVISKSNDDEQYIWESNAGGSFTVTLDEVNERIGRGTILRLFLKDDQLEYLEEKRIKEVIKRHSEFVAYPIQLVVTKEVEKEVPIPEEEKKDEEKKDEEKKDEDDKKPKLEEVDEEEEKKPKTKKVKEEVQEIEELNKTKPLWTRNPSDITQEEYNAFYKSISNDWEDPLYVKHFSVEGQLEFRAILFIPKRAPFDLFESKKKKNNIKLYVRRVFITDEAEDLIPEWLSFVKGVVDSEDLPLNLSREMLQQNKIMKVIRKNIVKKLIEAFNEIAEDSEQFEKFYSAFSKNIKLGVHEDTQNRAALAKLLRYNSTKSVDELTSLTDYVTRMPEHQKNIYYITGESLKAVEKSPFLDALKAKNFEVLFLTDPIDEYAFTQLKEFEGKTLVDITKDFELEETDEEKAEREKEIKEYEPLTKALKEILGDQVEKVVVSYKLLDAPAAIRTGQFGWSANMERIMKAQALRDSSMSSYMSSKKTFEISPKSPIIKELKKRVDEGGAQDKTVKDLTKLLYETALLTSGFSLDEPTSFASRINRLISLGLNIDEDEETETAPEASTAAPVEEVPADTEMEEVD

| SMILES | Kd (Yeast Hsp90) [nM] | Test/Control (%) at drug concentration (CNXF 498NL; 0.01 μg/mL) [%] | Test/Control (%) at drug concentration (CNXF 498NL; 0.1 μg/mL) [%] | Test/Control (%) at drug concentration (CNXF 498NL; 1 μg/mL) [%] | Test/Control (%) at drug concentration (CNXF 498NL; 10 μg/mL) [%] | Test/Control (%) at drug concentration (CNXF 498NL; 100 μg/mL) [%] | Test/Control (%) at drug concentration (CXF HT29; CXF HT29, 0.01 μg/mL) [%] | Test/Control (%) at drug concentration (CXF HT29; CXF HT29, 0.1 μg/mL) [%] | Test/Control (%) at drug concentration (CXF HT29; CXF HT29, 1 μg/mL) [%] | Test/Control (%) at drug concentration (CXF HT29; CXF HT29, 10 μg/mL) [%] | Test/Control (%) at drug concentration (CXF HT29; CXF HT29, 100 μg/mL) [%] | Test/Control (%) at drug concentration (DU145; DU145, 0.01 μg/mL) [%] | Test/Control (%) at drug concentration (DU145; DU145, 0.1 μg/mL) [%] | Test/Control (%) at drug concentration (DU145; DU145, 1 μg/mL) [%] | Test/Control (%) at drug concentration (DU145; DU145, 10 μg/mL) [%] | Test/Control (%) at drug concentration (DU145; DU145, 100 μg/mL) [%] | Test/Control (%) at drug concentration (LXF 1121L; 0.01 μg/mL) [%] | Test/Control (%) at drug concentration (LXF 1121L; 0.1 μg/mL) [%] | Test/Control (%) at drug concentration (LXF 1121L; 1 μg/mL) [%] | average IC70 value across the cell-line panel [1] [µg/mL] | other results |
| --- | --- | --- | --- | --- | --- | --- | --- | --- | --- | --- | --- | --- | --- | --- | --- | --- | --- | --- | --- | --- | --- |
| CO[C@H]1C[C@H](C)Cc2cccc(c2)NC(=O)/C(C)=C/CC[C@H](C)[C@@H](OC(N)=O)/C(C)=C/[C@H](C)[C@H]1O [Compound 16, 4,5-dihydro-11-O-desmethyl-15-desmethoxy-18,21-didesoxymacbecin] | 20 | 100 | 19 | 8 | 8 | 6 | 106 | 52 | 8 | 7 | 6 | 96 | 47 | 8 | 8 | 8 | 106 | 48 | 10 | 0.193 | Test/Control (%) at drug concentration (LXF 1121L; 10 μg/mL): 7%; Test/Control (%) at drug concentration (LXF 1121L; 100 μg/mL): 5%; Test/Control (%) at drug concentration (MCF-7; MCF-7, 0.01 μg/mL): 83%; Test/Control (%) at drug concentration (MCF-7; MCF-7, 0.1 μg/mL): 21%; Test/Control (%) at drug concentration (MCF-7; MCF-7, 1 μg/mL): 10%; Test/Control (%) at drug concentration (MCF-7; MCF-7, 10 μg/mL): 11%; Test/Control (%) at drug concentration (MCF-7; MCF-7, 100 μg/mL): 10%; Test/Control (%) at drug concentration (MEXF 394NL; 0.01 μg/mL): 100%; Test/Control (%) at drug concentration (MEXF 394NL; 0.1 μg/mL): 64%; Test/Control (%) at drug concentration (MEXF 394NL; 1 μg/mL): 7%; Test/Control (%) at drug concentration (MEXF 394NL; 10 μg/mL): 5%; Test/Control (%) at drug concentration (MEXF 394NL; 100 μg/mL): 3% |
| CO[C@H]1C[C@H](C)Cc2cc(O)cc(c2)NC(=O)/C=C/CC[C@H](OC)[C@@H](OC(N)=O)/C(C)=C/[C@H](C)[C@H]1O [KOSN1559] | – | – | – | – | – | – | – | – | – | – | – | – | – | – | – | – | – | – | – | – | binding affinity to Hsp90 relative to 17-AAG (Hsp90; greater binding affinity than 17-AAG): 8 fold; binding affinity to Hsp90 relative to geldanamycin (Hsp90; greater binding affinity than geldanamycin): 4 fold |
| CO[C@H]1[C@@H](OC)C[C@H](C)[C@@H](OC)C2=CC(=O)C=C(NC(=O)/C(C)=C/C=C\[C@H](C)[C@@H](OC(N)=O)/C(C)=C/[C@@H]1C)C2=O [macbecin] | – | – | – | – | – | – | – | – | – | – | – | – | – | – | – | – | – | – | – | 0.21 | – |

Further lines, with some results ahead:

| Kd (Yeast Hsp90) [nM] | SMILES | Test/Control (%) at drug concentration (CNXF 498NL; 0.01 μg/mL) [%] | Test/Control (%) at drug concentration (CNXF 498NL; 0.1 μg/mL) [%] | Test/Control (%) at drug concentration (CNXF 498NL; 1 μg/mL) [%] | Test/Control (%) at drug concentration (CNXF 498NL; 10 μg/mL) [%] | Test/Control (%) at drug concentration (CNXF 498NL; 100 μg/mL) [%] | Test/Control (%) at drug concentration (CXF HT29; CXF HT29, 0.01 μg/mL) [%] | Test/Control (%) at drug concentration (CXF HT29; CXF HT29, 0.1 μg/mL) [%] | Test/Control (%) at drug concentration (CXF HT29; CXF HT29, 1 μg/mL) [%] | Test/Control (%) at drug concentration (CXF HT29; CXF HT29, 10 μg/mL) [%] | Test/Control (%) at drug concentration (CXF HT29; CXF HT29, 100 μg/mL) [%] | Test/Control (%) at drug concentration (DU145; DU145, 0.01 μg/mL) [%] | Test/Control (%) at drug concentration (DU145; DU145, 0.1 μg/mL) [%] | Test/Control (%) at drug concentration (DU145; DU145, 1 μg/mL) [%] | Test/Control (%) at drug concentration (DU145; DU145, 10 μg/mL) [%] | Test/Control (%) at drug concentration (DU145; DU145, 100 μg/mL) [%] | Test/Control (%) at drug concentration (LXF 1121L; 0.01 μg/mL) [%] | Test/Control (%) at drug concentration (LXF 1121L; 0.1 μg/mL) [%] | Test/Control (%) at drug concentration (LXF 1121L; 1 μg/mL) [%] | average IC70 value across the cell-line panel [1] [µg/mL] | other results |
| --- | --- | --- | --- | --- | --- | --- | --- | --- | --- | --- | --- | --- | --- | --- | --- | --- | --- | --- | --- | --- | --- |
| 19 | CO[C@H]1C[C@H](C)Cc2cc(ccc2F)NC(=O)/C(C)=C/CC[C@H](C)[C@@H](OC(N)=O)/C(C)=C/[C@H](C)[C@H]1O [Compound 17, 4,5-dihydro-11-O-desmethyl-15-desmethoxy-17-fluoro-18,21-didesoxymacbecin] | 97 | 22 | 7 | 8 | 7 | 102 | 49 | 7 | 7 | 8 | 93 | 7 | 8 | 10 | 9 | 100 | 41 | 10 | 0.106 | Test/Control (%) at drug concentration (LXF 1121L; 10 μg/mL): 11%; Test/Control (%) at drug concentration (LXF 1121L; 100 μg/mL): 11%; Test/Control (%) at drug concentration (MCF-7; MCF-7, 0.01 μg/mL): 86%; Test/Control (%) at drug concentration (MCF-7; MCF-7, 0.1 μg/mL): 20%; Test/Control (%) at drug concentration (MCF-7; MCF-7, 1 μg/mL): 10%; Test/Control (%) at drug concentration (MCF-7; MCF-7, 10 μg/mL): 10%; Test/Control (%) at drug concentration (MCF-7; MCF-7, 100 μg/mL): 8%; Test/Control (%) at drug concentration (MEXF 394NL; 0.01 μg/mL): 101%; Test/Control (%) at drug concentration (MEXF 394NL; 0.1 μg/mL): 21%; Test/Control (%) at drug concentration (MEXF 394NL; 1 μg/mL): 4%; Test/Control (%) at drug concentration (MEXF 394NL; 10 μg/mL): 3%; Test/Control (%) at drug concentration (MEXF 394NL; 100 μg/mL): 3% |
| 23.5 | CO[C@H]1C[C@H](C)Cc2cc(F)cc(c2)NC(=O)/C(C)=C/CC[C@H](C)[C@@H](OC(N)=O)/C(C)=C/[C@H](C)[C@H]1O [Compound 18, 4,5-dihydro-11-O-desmethyl-15-desmethoxy-18-fluoro-18,21-didesoxymacbecin] | 64 | 9 | 9 | 11 | 9 | 98 | 14 | 11 | 13 | 11 | 66 | 9 | 8 | 9 | 6 | 94 | 43 | 13 | 0.077 | Test/Control (%) at drug concentration (LXF 1121L; 10 μg/mL): 13%; Test/Control (%) at drug concentration (LXF 1121L; 100 μg/mL): 12%; Test/Control (%) at drug concentration (MCF-7; MCF-7, 0.01 μg/mL): 77%; Test/Control (%) at drug concentration (MCF-7; MCF-7, 0.1 μg/mL): 27%; Test/Control (%) at drug concentration (MCF-7; MCF-7, 1 μg/mL): 12%; Test/Control (%) at drug concentration (MCF-7; MCF-7, 10 μg/mL): 12%; Test/Control (%) at drug concentration (MCF-7; MCF-7, 100 μg/mL): 8%; Test/Control (%) at drug concentration (MEXF 394NL; 0.01 μg/mL): 91%; Test/Control (%) at drug concentration (MEXF 394NL; 0.1 μg/mL): 24%; Test/Control (%) at drug concentration (MEXF 394NL; 1 μg/mL): 7%; Test/Control (%) at drug concentration (MEXF 394NL; 10 μg/mL): 5%; Test/Control (%) at drug concentration (MEXF 394NL; 100 μg/mL): 4% |
